Structures can show the parent of a compound that is named as a salt.

Holding throughout (format): cell-based
The subject of data set [1] is Fuchs' endothelial corneal dystrophy patient derived immortalized human corneal endothelial cells. The data set can be described thus: Phase contrast microscope observation of cell damage after TGF-β2 stimulation (Examples 4-6). As to conditions: then TGF-β2 10 ng/ml 24 h; for disorder in corneal endothelial cells (phase contrast microscope): pretreated 24 h. How it is done: (§1) The medium was removed from the culture dish in which Fuchs' endothelial corneal dystrophy patient derived immortalized human corneal endothelial cells were being cultured, and the cells were supplemented with 1× PBS (−) that was preheated to 37° C., and were washed. This was repeated twice. The cells were supplemented with 1× PBS (−) again and incubated for 5 minutes at 37° C. (5% CO2). After removing the PBS (−), the cells were supplemented with 0.05% Trypsin-EDTA (nacalai tesque, 32778-34) and incubated for 5 minutes at 37° C. (5% CO2). The cells were then suspended in a medium, and collected by centrifugation at 1500 rpm for 3 minutes. DMEM (nacalai tesque, 08456-36) +10% FBS (Sigma, 13H467)+1% P/S (nacalai tesque, 26252-94) was used as the medium.
Fuchs' endothelial corneal dystrophy patient derived immortalized human corneal endothelial cells (lot: iFECD3-5) were seeded on a 12-well plate at a ratio of 5.0×10^4 cells per well, and cultured for 24 hours at 37° C. (5% CO2). DMEM+10% FBS+1% P/S was used as the medium.
(§2) After 24 hours, the medium was removed, fluticasone furoate (AXON MEDCHEM, 1172) was added so that the final concentration was each 0.0001, 0.0003, 0.001, 0.003, 0.01, 0.03, 0.1, 0.3, 1, and 3 μM, and the cells were cultured for 24 hours. DMEM+2% FBS+1% P/S was used as the medium.
After 24 hours, the medium was removed, fluticasone furoate was added together with 10 ng/ml Transforming Growth Factor-82 Human recombinant (WAKO, 200-19911) so that the final concentration was each 0.0001, 0.0003, 0.001, 0.003, 0.01, 0.03, 0.1, 0.3, 1, and 3 μM, and the cells were cultured for 24 hours. Medium: DMEM+2% FBS+1% P/S
After 24 hours, cell morphology and apoptosis were observed using a phase difference microscope.
In this example, TGF-β inhibiting activity of ZK216348 (AXON MEDCHEM, AXON2239), which is one of SEGRMs, was tested. The operation by a phase contrast microscope was carried out in the same manner as Example 4. 10 μM of ZK216348 was used as the final concentration.
After 24 hours, the medium was removed, ZK216348 was added together with 10 ng/ml Transforming Growth Factor-β2 Human recombinant (WAKO, 200-19911) so that the final concentration was […], and the cells were cultured for 24 hours. DMEM+2% FBS+1% P/S was used as the medium.

Data set [2] has the same test system. The data set can be described thus: Cell Titer-Glo Luminescent Cell Viability Assay (Examples 4-5). Conditions: all concentrations of 0.0001, 0.0003, 0.001, 0.003, 0.01, 0.03, 0.1, 0.3, 1, and 3 μM. The method, then: as §1
Fuchs' endothelial corneal dystrophy patient derived immortalized human corneal endothelial cells (lot: iFECD3-5) were seeded on a 96-well plate at a ratio of 7×10^3 cells per well, and cultured at 37° C. (5% CO2) until reaching confluence. DMEM+10% FBS+1% P/S was used as the medium. […]
Cell viability was analyzed using Cell Titer-Glo Luminescent Cell Viability Assay by the following procedure.
The medium was discarded to achieve 50 μl per well. […] After being left still, 80 μl was transferred to Assay plate (Corning, 3912, Assay plate 96 well, white polystyrene) and […] was measured using GloMax-Multi Detection System (Promega, E7051). […]
(In general: In ATP-based viability assays light output follows the ATP content of the culture.)

Data set [3] shares this test system. The experiment in a line: Caspase-Glo 3/7 Assay after pretreatment and TGF-β2 stimulation (Examples 4-5). Conditions: for activity of Caspase 3/7: TGF-β2 10 ng/ml 24 h; for ratio of (caspase 3/7 activity)/(cell viability): agent concentration 0.0001 to 3 μM (FIG. 12). The method, then:
as §1
Fuchs' endothelial corneal dystrophy patient derived immortalized human corneal endothelial cells (lot: iFECD3-5) were seeded on a 96-well plate at a ratio of 7×10^3 cells per well, and cultured at 37° C. (5% CO2) until reaching confluence. DMEM+10% FBS+1% P/S was used as the medium.
as §2
After 24 hours, the medium was removed, 10 ng/ml Transforming Growth Factor-82 Human recombinant (WAKO, 200-19911) and fluticasone furoate were added so that the final concentration was each 0.0001, 0.0003, 0.001, 0.003, 0.01, 0.03, 0.1, 0.3, 1, and 3 μM, and the cells were cultured for 24 hours. DMEM+2% FBS+1% P/S was used as the medium.
After observation, measurement of caspase 3/7 activity by Caspase-Glo 3/7 Assay was carried out with the following procedure.
The medium was discarded to achieve 50 μl per well. 50 μl/well of CaspaseGlo 3/7 Assay Reagent (mixture of Caspase-Glo 3/7 Assay Buffer and Caspase-Glo 3/7 Assay Substrate) (Promega, G8091) solution was added so as to achieve 1:1 with the medium. The operations hereafter were carried out while being shaded. A shaker was used to mix the content well for 2 minutes at about 120 r/min to then be left still for 40 minutes at room temperature. After being left still, 80 μl was transferred to Assay plate (Corning, 3912, Assay plate 96 well, white polystyrene) and […] was measured using GloMax-Multi Detection System (Promega, E7051). Furthermore, 10 μM Z-VD-FMK (WAKO, 262-02061), which is a caspase inhibitor, was used as the positive control.
In this example, TGF-β inhibiting activity of fluticasone propionate (AXON MEDCHEM, 1404), which is one of SEGRAs, was tested. The test was conducted by the same procedure as Example 4.

The subject of data set [4] is immortalized Fuchs' endothelial corneal dystrophy cells. The experiment in a line: Concentration-dependent caspase 3/7 activity under TGF-β2 stimulation (Example 3). Conditions: Homo sapiens, TGF-β2 10 ng/mL, 28 hours; for activity at 0.01 µM: agent 10 nM; for activity at 1 µM: agent 1 μM; for activity at 10 µM: agent 10 μM. The method, then: 7×10^3 immortalized Fuchs' endothelial corneal dystrophy cells were seeded on a 96-well plate and were cultured for 24 hours under the condition of 5% CO2 at 37° C.
After 28 hours under the condition of 5% CO2 at 37° C., cell morphology was observed using a phase difference microscope. Caspase 3/7 activity was then measured using Caspase-Glo 3/7 Assay (Promega, #G8091). DMEM+2% FBS+1% P/S was used as the medium. Caspase 3/7 activity and cell viability in this example were measured using GloMax-Multi Detection System (Promega, E7051).
Caspase 3/7 activity below 80% was used as a indicator indicating whether an agent can be used for treating or preventing a corneal endothelial condition, disorder, or disease, or whether an agent can be used as a caspase inhibitor (the underlines in FIG. 4A-1, FIG. 4A-2 and FIG. 4A-3, and FIG. 4B-1, FIG. 4B-2 and FIG. 4B-3).

On to `C[C@@H]1C[C@H]2[C@@H]3C[C@H](F)C4=CC(=O)C=C[C@]4(C)[C@@]3(F)[C@@H](O)C[C@]2(C)[C@@]1(OC(=O)c1ccco1)C(=O)SCF` [fluticasone furoate], for which the “disorder in corneal endothelial cells (phase contrast microscope)” value was “effect of suppressing a disorder in corneal endothelial cells was confirmed” in data set [1] (0.0001 and 0.0003 μM); “effectively suppressed” in data set [1] (0.001, 0.003, 0.01, 0.03, 0.1, 0.3, 1, and 3 μM). Moreover, the cell viability entry in data set [2] is on record as “no significant difference from the Control group”. Besides, the “activity of Caspase 3/7” value in data set [3] (0.003, 0.01, 0.03, 0.1, 0.3, 1, and 3 μM) is “almost the same as those in the Control group”; in data set [3] (in the order of 0.0001, 0.0003, and 0.001 μM), “decreased”. Besides, in data set [3], the “ratio of (caspase 3/7 activity)/(cell viability)” value was “below 0.8”.
As to `CCC(=O)O[C@]1(C(=O)SCF)[C@H](C)C[C@H]2[C@@H]3C[C@H](F)C4=CC(=O)C=C[C@]4(C)[C@@]3(F)[C@@H](O)C[C@@]21C` [fluticasone propionate], the “disorder in corneal endothelial cells (phase contrast microscope)” value in data set [1] (0.0001, 0.0003, 1, and 3 μM) was “effect of suppressing a disorder in corneal endothelial cells was confirmed”; in data set [1] (0.001, 0.003, 0.01, 0.03, and 0.1 μM), “effectively suppressed”. Besides, in data set [2], the cell viability entry is reported as “no significant difference from the Control group”. For the same compound, the “activity of Caspase 3/7” value in data set [3] (0.01, 0.03, 0.1, 0.3, and 1 μM) is reported as “almost the same as those in the Control group”; in data set [3] (in the order of 0.0001, 0.0003, 0.001, and 0.003 μM), “decreased”. Besides, the “ratio of (caspase 3/7 activity)/(cell viability)” value in data set [3] is reported as “below 0.8”.
In data set [4], `C[C@@H]1C[C@H]2[C@@H]3CCC4=CC(=O)C=C[C@]4(C)[C@@]3(F)[C@@H](O)C[C@]2(C)[C@@]1(O)C(=O)CO` [Dexamethasone] yielded an activity at 0.01 µM of at most 80%, an activity at 1 µM of at most 80% and an activity at 10 µM of at most 80%. The activity at 0.1 µM in data set [4] (agent 100 nM) is at most 80%.
Take `Cc1noc(=O)c2ccc(NC(=O)C(O)(CC(C)(C)c3cccc4c3OCC4)C(F)(F)F)cc12` (single isomer, unassigned; (+)) [ZK216348, (+)-4-(2,3-dihydro-1-benzofuran-7-yl)-2-hydroxy-4-methyl-N-(4-methyl-1-oxo-2,3-benzoxazine-6-yl)-2-(trifluoromethyl)pentanamide]: the “free cells and disorder in corneal endothelial cells (phase contrast microscope)” value in data set [1] (pretreated, final concentration 10 μM) was “free cells were decreased and a disorder in corneal endothelial cells was suppressed”.
In data set [4], `CC[C@@H]1/C=C(\C)C[C@H](C)C[C@H](OC)[C@H]2O[C@@](O)(C(=O)C(=O)N3CCCC[C@H]3C(=O)O[C@H](/C(C)=C/[C@@H]3CC[C@H](Cl)[C@H](OC)C3)[C@H](C)[C@@H](O)CC1=O)[C@H](C)C[C@@H]2OC` [Pimecrolimus] came in with an activity at 0.01 µM of at most 80%, an activity at 1 µM of at most 80% and an activity at 10 µM of at most 80%.
With `Cc1ccc(O)c([C@H](CCN(C(C)C)C(C)C)c2ccccc2)c1` [Tolterodine Tartrate], the activity at 0.001 µM in data set [4] (agent 1 nM) is at most 80%. In addition, in data set [4], the activity at 0.01 µM was at most 80%, the activity at 1 µM was at most 80% and the activity at 10 µM was at most 80%.
